According to patent US20260248748A1, “LIPOOLIGOUREAS, PHARMACEUTICAL COMPOSITION, AND LIPOOLIGOUREAS FOR USE AS MEDICAMENT” (priority 2022, published 2026):
In brackets after ≈: the same amount, converted by molar mass. Read-outs that look alike come from different tables or passages of the source.

Legend:
[1] = system: Methicillin-resistant Staphylococcus aureus (MRSA) 4811/13; details: MRSA strain (+) 4811/13; LB medium, 24 h, 30° C.
Source text: (§1) All bacterial strains were obtained from the Polish Collection of Microorganisms (PCM) or American Type Culture Collection (ATCC). Gram-positive bacterial strains: Staphylococcus aureus ATCC 29213, Staphylococcus epidermidis ATCC 12228, Enterococcus faecalis ATCC 14506. Methicillin-resistant Staphylococcus aureus (MRSA) bacterial strains: Staphylococcus aureus 401/5, Staphylococcus aureus 4811/13, Staphylococcus aureus 5288/13. Gram-negative bacterial strains: Escherichia coli ST2-8624 O157:H7, Pseudomonas aeruginosa PAO1 PCM 499, Klebsiella pneumoniae PCM 1, Salmonella sv. typhimurium TT622, and Yersinia enterocolitica PCM 2081. All strains were cultured in LB medium (lysogenic broth).
(§2) 10 mL of LB medium was inoculated with the material from a single bacterial colony and cultured at 30° C. with shaking overnight. The optical density of overnight cultures (at 600 nm) was then brought to 0.05 by dilution with a fresh portion of LB medium. The test compounds were dissolved in water. Serial dilutions of the compounds were performed in LB medium ranging from 5 to 50 μg/mL (final concentrations). The experiment was carried out by adding 100 μL of each prepared dilution to 100 μL of diluted overnight bacterial culture in the wells of a 96-well titer plate. […] Optical density measurements were conducted using a TECAN Sunrise plate reader. Data were obtained from three independent experiments.

[2] = system: Methicillin-resistant Staphylococcus aureus (MRSA) 5288/13; details: MRSA strain (+) 5288/13; LB medium, 24 h, 30° C.
Source text: as §1, §2

[3] = system: Methicillin-resistant Staphylococcus aureus (MRSA) 401/5; details: MRSA strain (+) 401/5; LB medium, 24 h, 30° C.
Source text: as §1, §2

[4] = system: strains of methicillin-resistant Staphylococcus aureus (MRSA); assay: Activity against MRSA strains (summary of the MIC results); type: cell-based; details: in words, from the MIC values of Table 1
Procedure: (§3) All strains were cultured in LB medium (lysogenic broth).
(§4) The test compounds were dissolved in water. […] Data were obtained from three independent experiments.
The results of the measurements summarized in Table 1 indicate that all of the lipooligoureas tested show varying activity against the bacterial strains tested. Lipooligoureas according to the invention show activity against both gram-positive and gram-negative bacterial strains. The results obtained indicate a certain degree of selectivity of the lipooligoureas according to the invention against gram-positive strains of Staphylococcus aureus ATCC 29213 and Staphylococcus epidermidis ATCC 12228, for which by far the highest activity of the tested lipooligoureas was observed, i.e. the lowest values of MIC. This trend is also reflected in the activity against strains of methicillin-resistant Staphylococcus aureus (MRSA).

[5] = system: Yersinia enterocolitica PCM 2081; type: cell-based; details: LB medium, 24 h, 30° C.
Procedure: as §3, §4

[6] = system: Staphylococcus epidermidis ATCC 12228; type: cell-based; details: LB medium, 24 h, 30° C.
Procedure: as §3, §4

[7] = system: Escherichia coli ST2-8624 O157:H7; type: cell-based; details: LB medium, 24 h, 30° C.
Procedure: as §3, §4

[8] = system: Salmonella sv. typhimurium TT622; type: cell-based; details: 24 h
Procedure: as §3, §4

[9] = system: Staphylococcus aureus ATCC 29213; type: cell-based; details: LB medium, 24 h, 30° C.
Procedure: as §3, §4

[10] = system: Pseudomonas aeruginosa PAO1 PCM 499; type: cell-based; details: LB medium, 24 h, 30° C.
Procedure: as §3, §4

[11] = system: Klebsiella pneumoniae PCM 1; type: cell-based; details: LB medium, 24 h, 30° C.
Procedure: as §3, §4

[12] = system: Enterococcus faecalis ATCC 14506; type: cell-based; details: LB medium, 24 h, 30° C.
Procedure: as §3, §4

[13] = (−) Salmonella sv. typhimurium TT622, LB medium, 30° C.

Molecule `CCCCCCCCCC(=O)N[C@H](CNC(=O)N[C@@H](CCN)CNC(=O)N[C@H](CNC(=O)N[C@H](CNC(=O)N[C@@H](CCN)CNC(N)=O)CC(C)C)CC(C)C)Cc1ccccc1` [LOU3] has an MIC [1] of 5 µg/mL (≈ 5.62 µM), an MIC [2] of 5 µg/mL (≈ 5.62 µM) and an MIC [3] of 5 µg/mL (≈ 5.62 µM). The “activity against strains of methicillin-resistant Staphylococcus aureus (MRSA)” value [4] was “particularly high activity”, the MIC [5] was 10 µg/mL (≈ 11.2 µM) and the MIC [6] was 5 µg/mL (≈ 5.62 µM). The MIC [7] was 10 µg/mL (≈ 11.2 µM), the MIC [8] was 20 µg/mL (≈ 22.5 µM) and the MIC [9] was 5 µg/mL (≈ 5.62 µM). It also gave an MIC [10] of 10 µg/mL (≈ 11.2 µM), an MIC [11] of 20 µg/mL (≈ 22.5 µM) and an MIC [12] of 5 µg/mL (≈ 5.62 µM).
With `CCCCCCCCCC(=O)N[C@H](CNC(=O)N[C@@H](CCN)CNC(=O)N[C@@H](CCN)CNC(=O)N[C@H](CNC(=O)N[C@@H](CCN)CNC(N)=O)CC(C)C)Cc1ccccc1` [LOU4] the MIC [1] was 30 µg/mL (≈ 34.2 µM), the MIC [2] was 30 µg/mL (≈ 34.2 µM) and the MIC [3] was 20 µg/mL (≈ 22.8 µM). For the same molecule, the MIC [5] was “n.d. (n.d. = not determined, i.e., the MIC value was higher than 50 μg/mL)”, the MIC [6] was 20 µg/mL (≈ 22.8 µM) and the MIC [7] was “n.d. (n.d. = not determined, i.e., the MIC value was higher than 50 μg/mL)”. The MIC [8, 13] was “n.d. (n.d. = not determined, i.e., the MIC value was higher than 50 μg/mL)”, the MIC [9] was 20 µg/mL (≈ 22.8 µM) and the MIC [10] was “n.d. (n.d. = not determined, i.e., the MIC value was higher than 50 μg/mL)”. For the same molecule, the MIC [11] was “n.d. (n.d. = not determined, i.e., the MIC value was higher than 50 μg/mL)” and the MIC [12] was 40 µg/mL (≈ 45.6 µM).
For `CCCCCCCCCC(=O)N[C@H](CNC(=O)N[C@@H](CCN)CNC(=O)N[C@@H](CCN)CNC(=O)N[C@H](CNC(=O)N[C@H](CNC(N)=O)CC(C)C)CC(C)C)Cc1ccccc1` [LOU2], the MIC [1] was 10 µg/mL (≈ 11.2 µM), the MIC [2] was 10 µg/mL (≈ 11.2 µM) and the MIC [3] was 10 µg/mL (≈ 11.2 µM). The “activity against strains of methicillin-resistant Staphylococcus aureus (MRSA)” value [4] was “particularly high activity”, the MIC [5] was 30 µg/mL (≈ 33.7 µM) and the MIC [6] was 10 µg/mL (≈ 11.2 µM). The MIC [7] was 30 µg/mL (≈ 33.7 µM), the MIC [8] was 30 µg/mL (≈ 33.7 µM) and the MIC [9] was 10 µg/mL (≈ 11.2 µM). For the same molecule, the MIC [10] was 30 µg/mL (≈ 33.7 µM), the MIC [11] was 30 µg/mL (≈ 33.7 µM) and the MIC [12] was 20 µg/mL (≈ 22.5 µM).
Molecule `CCCCCCCCCC(=O)N[C@H](CNC(=O)N[C@@H](CCCCN)CNC(=O)N[C@@H](CCCCN)CNC(=O)N[C@H](CNC(=O)N[C@@H](CCCCN)CNC(N)=O)CC(C)C)Cc1ccccc1` [LOU1] has an MIC [1] of 30 µg/mL (≈ 31.2 µM), an MIC [2] of 40 µg/mL (≈ 41.6 µM) and an MIC [3] of 30 µg/mL (≈ 31.2 µM). The MIC [5] was “n.d. (n.d. = not determined, i.e., the MIC value was higher than 50 μg/mL)”, the MIC [6] was 30 µg/mL (≈ 31.2 µM) and the MIC [7] was “n.d. (n.d. = not determined, i.e., the MIC value was higher than 50 μg/mL)”. The MIC [8, 13] was “n.d. (n.d. = not determined, i.e., the MIC value was higher than 50 μg/mL)”, the MIC [9] was 30 µg/mL (≈ 31.2 µM) and the MIC [10] was “n.d. (n.d. = not determined, i.e., the MIC value was higher than 50 μg/mL)”. The MIC [11] was “n.d. (n.d. = not determined, i.e., the MIC value was higher than 50 μg/mL)” and the MIC [12] was “n.d. (n.d. = not determined, i.e., the MIC value was higher than 50 μg/mL)”.
